Data reported in US8044069B2, “Compounds as calcium channel blockers” (Abbott Laboratories, priority 2008, dated 2011).

Target: human Cav2.2 (Homo sapiens, UniProt Q00975)
Assay: Assessment of calcium channel activity using FLIPR (Ca2+ influx in IMR32 cells)
Assay type: cell-based
Details: IMR32 cells endogenously expressing human Cav2.2; 60 minute pre-incubation; 2 μM nifedipine; depolarized with 80 mM KCl, 5 mM CaCl2
Outline: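 FLIPR measured Ca2+ influx triggered by 80 mM KCl depolarization together with a step to 5 mM external CaCl2. Percent inhibition relative to uninhibited activity was fitted sigmoidally for IC50.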

Chain of human Cav2.2 (Q00975 whole entry): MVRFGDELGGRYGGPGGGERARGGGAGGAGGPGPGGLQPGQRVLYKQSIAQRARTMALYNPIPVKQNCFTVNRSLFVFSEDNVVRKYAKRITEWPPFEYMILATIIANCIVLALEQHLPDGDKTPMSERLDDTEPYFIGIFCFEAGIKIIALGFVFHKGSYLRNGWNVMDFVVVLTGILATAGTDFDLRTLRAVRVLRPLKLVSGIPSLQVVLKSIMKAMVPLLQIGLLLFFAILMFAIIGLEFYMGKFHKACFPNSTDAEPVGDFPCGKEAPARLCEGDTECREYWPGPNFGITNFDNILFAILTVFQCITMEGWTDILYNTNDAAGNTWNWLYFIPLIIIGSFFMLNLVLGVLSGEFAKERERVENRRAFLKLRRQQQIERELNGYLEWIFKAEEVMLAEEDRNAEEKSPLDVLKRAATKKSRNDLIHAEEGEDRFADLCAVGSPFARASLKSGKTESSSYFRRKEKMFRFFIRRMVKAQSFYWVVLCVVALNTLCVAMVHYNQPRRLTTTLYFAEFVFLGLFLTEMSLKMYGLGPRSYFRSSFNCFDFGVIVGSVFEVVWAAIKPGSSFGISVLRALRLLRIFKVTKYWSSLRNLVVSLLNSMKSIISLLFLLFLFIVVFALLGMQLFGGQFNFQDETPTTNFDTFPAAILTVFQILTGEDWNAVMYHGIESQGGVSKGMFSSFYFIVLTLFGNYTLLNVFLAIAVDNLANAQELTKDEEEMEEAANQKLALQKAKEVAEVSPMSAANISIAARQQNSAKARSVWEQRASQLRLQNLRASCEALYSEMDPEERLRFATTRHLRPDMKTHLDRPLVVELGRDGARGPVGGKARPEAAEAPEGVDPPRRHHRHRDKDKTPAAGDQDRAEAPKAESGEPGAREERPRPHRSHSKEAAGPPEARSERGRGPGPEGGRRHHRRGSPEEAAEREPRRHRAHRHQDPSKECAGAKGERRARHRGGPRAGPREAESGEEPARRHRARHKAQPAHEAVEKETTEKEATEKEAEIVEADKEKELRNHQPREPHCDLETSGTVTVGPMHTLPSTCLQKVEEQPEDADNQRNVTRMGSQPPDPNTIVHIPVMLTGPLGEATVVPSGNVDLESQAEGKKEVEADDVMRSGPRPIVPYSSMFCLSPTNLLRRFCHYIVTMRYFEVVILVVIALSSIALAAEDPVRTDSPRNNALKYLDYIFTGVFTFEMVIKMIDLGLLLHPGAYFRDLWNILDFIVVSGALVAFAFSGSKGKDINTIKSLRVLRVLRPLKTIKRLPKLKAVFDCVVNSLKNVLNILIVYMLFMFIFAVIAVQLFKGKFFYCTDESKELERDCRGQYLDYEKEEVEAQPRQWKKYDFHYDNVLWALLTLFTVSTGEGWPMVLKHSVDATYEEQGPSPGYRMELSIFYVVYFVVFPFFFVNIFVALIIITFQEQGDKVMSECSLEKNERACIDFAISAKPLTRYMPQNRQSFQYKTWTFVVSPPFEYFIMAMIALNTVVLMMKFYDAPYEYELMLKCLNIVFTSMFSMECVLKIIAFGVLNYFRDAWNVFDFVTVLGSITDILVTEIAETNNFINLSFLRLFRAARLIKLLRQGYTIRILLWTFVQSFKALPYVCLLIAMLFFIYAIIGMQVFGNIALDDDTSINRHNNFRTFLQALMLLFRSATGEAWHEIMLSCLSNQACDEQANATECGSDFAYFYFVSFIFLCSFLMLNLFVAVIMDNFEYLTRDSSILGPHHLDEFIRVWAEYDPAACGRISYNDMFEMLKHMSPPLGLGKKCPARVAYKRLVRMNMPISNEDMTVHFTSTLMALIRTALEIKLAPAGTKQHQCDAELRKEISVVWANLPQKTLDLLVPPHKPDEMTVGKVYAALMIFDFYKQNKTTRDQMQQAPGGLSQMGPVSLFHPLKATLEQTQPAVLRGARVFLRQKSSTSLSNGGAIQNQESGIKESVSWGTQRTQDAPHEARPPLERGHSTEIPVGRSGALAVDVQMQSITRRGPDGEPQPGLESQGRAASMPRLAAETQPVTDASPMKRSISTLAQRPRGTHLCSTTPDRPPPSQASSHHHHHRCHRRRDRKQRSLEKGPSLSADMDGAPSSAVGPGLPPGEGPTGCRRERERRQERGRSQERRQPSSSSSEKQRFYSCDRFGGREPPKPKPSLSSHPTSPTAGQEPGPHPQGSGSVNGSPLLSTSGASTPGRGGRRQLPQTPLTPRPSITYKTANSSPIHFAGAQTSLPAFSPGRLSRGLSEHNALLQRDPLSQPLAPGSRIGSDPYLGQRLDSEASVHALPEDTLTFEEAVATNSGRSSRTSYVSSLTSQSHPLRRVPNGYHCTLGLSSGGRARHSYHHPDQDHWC
Chain of human Cav2.2 (P54289 25-951 partner limits assumed): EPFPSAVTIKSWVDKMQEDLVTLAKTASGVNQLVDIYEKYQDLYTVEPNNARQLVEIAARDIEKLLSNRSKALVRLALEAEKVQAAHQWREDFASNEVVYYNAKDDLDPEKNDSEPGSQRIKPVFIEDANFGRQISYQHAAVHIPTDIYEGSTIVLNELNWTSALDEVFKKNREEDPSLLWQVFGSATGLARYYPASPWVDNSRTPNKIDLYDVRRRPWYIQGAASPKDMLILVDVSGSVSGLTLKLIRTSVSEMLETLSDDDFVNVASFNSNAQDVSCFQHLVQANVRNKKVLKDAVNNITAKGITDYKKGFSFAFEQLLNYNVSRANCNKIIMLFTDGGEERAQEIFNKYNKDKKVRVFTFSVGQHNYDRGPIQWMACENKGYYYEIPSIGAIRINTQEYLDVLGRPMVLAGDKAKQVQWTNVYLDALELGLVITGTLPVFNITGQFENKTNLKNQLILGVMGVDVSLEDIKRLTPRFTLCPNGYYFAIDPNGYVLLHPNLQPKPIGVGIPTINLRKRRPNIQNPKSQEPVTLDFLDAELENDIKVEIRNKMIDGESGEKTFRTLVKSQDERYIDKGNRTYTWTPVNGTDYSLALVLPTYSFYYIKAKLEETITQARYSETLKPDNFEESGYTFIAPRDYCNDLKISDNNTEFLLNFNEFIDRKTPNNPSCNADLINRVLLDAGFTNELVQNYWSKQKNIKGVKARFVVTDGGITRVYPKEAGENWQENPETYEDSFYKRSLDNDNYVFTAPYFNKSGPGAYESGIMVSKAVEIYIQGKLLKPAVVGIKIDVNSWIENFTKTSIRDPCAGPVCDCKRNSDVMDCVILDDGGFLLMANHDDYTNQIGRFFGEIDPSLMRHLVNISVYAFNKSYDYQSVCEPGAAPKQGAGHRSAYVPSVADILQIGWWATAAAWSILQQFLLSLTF
Chain of human Cav2.2 (P54289 952-1103 partner limits assumed): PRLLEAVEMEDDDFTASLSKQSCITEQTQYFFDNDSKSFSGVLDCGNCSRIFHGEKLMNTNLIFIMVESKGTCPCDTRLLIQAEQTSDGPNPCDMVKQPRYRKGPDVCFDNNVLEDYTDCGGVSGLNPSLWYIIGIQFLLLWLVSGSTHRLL
Chain of human Cav2.2 (P54284 whole entry partner): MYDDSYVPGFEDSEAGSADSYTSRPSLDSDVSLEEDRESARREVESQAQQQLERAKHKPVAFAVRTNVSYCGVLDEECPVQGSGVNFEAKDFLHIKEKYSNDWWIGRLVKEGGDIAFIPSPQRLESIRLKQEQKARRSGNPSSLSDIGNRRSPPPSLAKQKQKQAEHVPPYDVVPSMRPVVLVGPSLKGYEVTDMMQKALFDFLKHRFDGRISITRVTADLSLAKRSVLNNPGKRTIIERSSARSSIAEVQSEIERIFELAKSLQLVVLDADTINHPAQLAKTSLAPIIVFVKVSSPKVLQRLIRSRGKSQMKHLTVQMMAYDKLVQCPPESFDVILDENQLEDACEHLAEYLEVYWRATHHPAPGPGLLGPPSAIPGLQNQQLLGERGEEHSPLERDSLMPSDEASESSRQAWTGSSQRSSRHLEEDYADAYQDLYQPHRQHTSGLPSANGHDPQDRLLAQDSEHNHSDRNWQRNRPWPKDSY

| IC50 [nM] | Structure (SMILES) |
| --- | --- |
| 3870 | O=C(CN1CCC(c2ccccc2)(c2ccccc2)C1=O)NCCc1cccc(C(F)(F)F)c1 [Example 10, 2-(2-oxo-3,3-diphenylpyrrolidin-1-yl)-N-{2-[3-(trifluoromethyl)phenyl]ethyl}acetamide] |
| 11400 | O=C(CN1CCC(c2ccc(F)cc2Cl)C1=O)N1Cc2ccc(F)cc2C1 (stereo not drawn) [Example 268, 3-(2-chloro-4-fluorophenyl)-1-[2-(5-fluoro-1,3-dihydro-2H-isoindol-2-yl)-2-oxoethyl]pyrrolidin-2-one] |
| 1990 | O=C1N(Cc2nc(-c3cnccc3C(F)(F)F)no2)CCC1(c1ccccc1)c1ccccc1 [Example 220, 3,3-diphenyl-1-({3-[4-(trifluoromethyl)pyridin-3-yl]-1,2,4-oxadiazol-5-yl}methyl)pyrrolidin-2-one] |
| 4010 | O=C1N(Cc2noc(-c3ccc(C(F)(F)F)cc3)n2)CCC1(c1ccccc1)c1ccccc1 [Example 196, 3,3-diphenyl-1-({5-[4-(trifluoromethyl)phenyl]-1,2,4-oxadiazol-3-yl}methyl)pyrrolidin-2-one] |
| 4440 | O=C(CN1CCCC(c2ccccc2)(c2ccccc2)C1=O)N1CCc2ccc(C(F)(F)F)cc2C1 [Example 261, 1-{2-oxo-2-[7-(trifluoromethyl)-3,4-dihydroisoquinolin-2(1H)-yl]ethyl}-3,3-diphenylpiperidin-2-one] |
| 1860 | O=C(CN1CCCC(c2ccccc2)(c2ccccc2)C1=O)N1CCC(Oc2cccc(C(F)(F)F)c2)CC1 [Example 162, 1-(2-oxo-2-{4-[3-(trifluoromethyl)phenoxy]piperidin-1-yl}ethyl)-3,3-diphenylpiperidin-2-one] |
| 4480 | O=C(CN1CCC(c2ccccc2)(c2ccccc2)C1=O)Nc1cccc(C(F)(F)F)n1 [Example 247, 2-(2-oxo-3,3-diphenylpyrrolidin-1-yl)-N-[6-(trifluoromethyl)pyridin-2-yl]acetamide] |
| 1450 | CN(CCCN1CCCC(c2ccc(F)cc2)(c2ccc(F)cc2)C1=O)CCc1ccccc1 [Example 123, 3,3-bis(4-fluorophenyl)-1-{3-[methyl(2-phenylethyl)amino]propyl}piperidin-2-one] |
| 940 | O=C(CN1CCCC(c2ccccc2)(c2ccccc2)C1=O)NC1CN(Cc2cccc(C(F)(F)F)c2)C1 [Example 180, 2-(2-oxo-3,3-diphenylpiperidin-1-yl)-N-{1-[3-(trifluoromethyl)benzyl]azetidin-3-yl}acetamide] |
| 1800 | O=C(CN1CCCC(c2ccccc2)(c2ccccc2)C1=O)N1CCN(Cc2ccc(Cl)cc2Cl)CC1 [Example 169, 1-{2-[4-(2,4-dichlorobenzyl)piperazin-1-yl]-2-oxoethyl}-3,3-diphenylpiperidin-2-one] |
| 4770 | O=C1N(CCN2CCN(c3cccc(C(F)(F)F)c3)CC2)CCCC1(c1ccc(F)cc1)c1ccc(F)cc1 [Example 139, 3,3-bis(4-fluorophenyl)-1-(2-{4-[3-(trifluoromethyl)phenyl]piperazin-1-yl}ethyl)piperidin-2-one] |
| 4320 | O=C(CN1CCC(c2ccc(F)cc2)C1=O)N1CCc2ccc(C(F)(F)F)cc2C1 (stereo not drawn) [Example 254, 3-(4-fluorophenyl)-1-{2-oxo-2-[7-(trifluoromethyl)-3,4-dihydroisoquinolin-2(1H)-yl]ethyl}pyrrolidin-2-one] |
| 1770 | CC(C)(C)OC(=O)N1CCN(CC(=O)N2CCN(C(c3ccccc3)c3ccccc3)CC2)C(=O)C1c1ccccc1 (stereo not drawn) [Example 101, tert-butyl 4-[2-(4-benzhydrylpiperazin-1-yl)-2-oxoethyl]-3-oxo-2-phenylpiperazine-1-carboxylate] |
| 670 | COc1cc(CN2CCN(CCCN3CCCC(c4cccc(OC)c4)(C(C)C)C3=O)CC2)cc(OC)c1 (stereo not drawn) [Example 133, 1-{3-[4-(3,5-dimethoxybenzyl)piperazin-1-yl]propyl}-3-isopropyl-3-(3-methoxyphenyl)piperidin-2-one] |
| 4670 | O=C1N(Cc2nc(-c3ccc(Cl)cc3)no2)CCC1(c1ccccc1)c1ccccc1 [Example 193, 1-{[3-(4-chlorophenyl)-1,2,4-oxadiazol-5-yl]methyl}-3,3-diphenylpyrrolidin-2-one] |
| 1130 | COc1ccc(CCN(C)CCN2CCCC(c3cccc(OC)c3)(C(C)C)C2=O)cc1 (stereo not drawn) [Example 130, 3-isopropyl-3-(3-methoxyphenyl)-1-{2-[[2-(4-methoxyphenyl)ethyl](methyl)amino]ethyl}piperidin-2-one] |
| 1710 | CC(CNC(=O)CN1CCCC(c2ccccc2)(c2ccccc2)C1=O)(c1ccccc1)c1ccccc1 [Example 77, N-(2,2-diphenylpropyl)-2-(2-oxo-3,3-diphenylpiperidin-1-yl)acetamide] |
| 1100 | O=C(CN1CCC(c2ccccc2)(c2ccccc2)C1=O)N[C@H]1CC[C@H]2CN(Cc3cccc(C(F)(F)F)c3)C[C@H]21 (relative stereo) [Example 56, 2-(2-oxo-3,3-diphenylpyrrolidin-1-yl)-N-{(3aS*,4S*,6aR*)-2-[3-(trifluoromethyl)benzyl]octahydrocyclopenta[c]pyrrol-4-yl}acetamide] |

| IC50 [nM] | Structure (SMILES) |
| --- | --- |
| 2550 | O=C(CN1CCC(c2ccc(F)cc2)(c2ccc(F)cc2)C1=O)N1CCc2ccc(C(F)(F)F)cc2C1 [Example 259, 3,3-bis(4-fluorophenyl)-1-{2-oxo-2-[7-(trifluoromethyl)-3,4-dihydroisoquinolin-2(1H)-yl]ethyl}pyrrolidin-2-one] |
| 2430 | O=C(CN1CCCC(c2ccccc2)(c2ccccc2)C1=O)N1CCC(c2ccccc2)(c2ccccc2)C1 [Example 174, 1-[2-(3,3-diphenylpyrrolidin-1-yl)-2-oxoethyl]-3,3-diphenylpiperidin-2-one] |
| 3940 | O=C1N(CCN2CCN(c3cccc(C(F)(F)F)c3)CC2)CCC1(c1ccc(F)cc1)c1ccc(F)cc1 [Example 111, 3,3-bis(4-fluorophenyl)-1-(2-{4-[3-(trifluoromethyl)phenyl]piperazin-1-yl}ethyl)pyrrolidin-2-one] |
| 8130 | O=C1N(S(=O)(=O)c2ccc(C(F)(F)F)cc2)CCC1(c1ccccc1)c1ccccc1 [Example 149, 3,3-diphenyl-1-{[4-(trifluoromethyl)phenyl]sulfonyl}pyrrolidin-2-one] |
| 690 | O=C(CN1CCC(c2ccccc2)(c2ccccc2)C1=O)N1CCOC(c2ccccc2)(c2ccccc2)C1 [Example 23, 1-[2-(2,2-diphenylmorpholin-4-yl)-2-oxoethyl]-3,3-diphenylpyrrolidin-2-one] |
| 2610 | O=C(CN1CCCC(c2ccccc2)(c2ccccc2)C1=O)N1CCC(C(c2ccccc2)c2ccccc2)CC1 [Example 76, 1-[2-(4-benzhydrylpiperidin-1-yl)-2-oxoethyl]-3,3-diphenylpiperidin-2-one] |
| 1270 | O=C(CN1CCCC(c2ccccc2)(c2ccccc2)C1=O)N1CCN(Cc2ccc(F)c(C(F)(F)F)c2)CC1 [Example 184, 1-(2-{4-[4-fluoro-3-(trifluoromethyl)benzyl]piperazin-1-yl}-2-oxoethyl)-3,3-diphenylpiperidin-2-one] |
| 990 | O=C(CN1CCC(c2ccccc2)(c2ccccc2)C1=O)NCCC(c1ccccc1)c1ccccc1 [Example 13, N-(3,3-diphenylpropyl)-2-(2-oxo-3,3-diphenylpyrrolidin-1-yl)acetamide] |
| 1150 | O=C(CN1CCCC(c2ccccc2)(c2ccccc2)C1=O)N[C@H]1CCN(Cc2cccc(C(F)(F)F)c2)C1 [Example 185, 2-(2-oxo-3,3-diphenylpiperidin-1-yl)-N-{(3S)-1-[3-(trifluoromethyl)benzyl]pyrrolidin-3-yl}acetamide] |
| 6800 | O=C(CN1CCC(c2ccc(F)cc2)(c2ccc(F)cc2)C1=O)Nc1ccc(C(F)(F)F)cc1 [Example 218, 2-[3,3-bis(4-fluorophenyl)-2-oxopyrrolidin-1-yl]-N-[4-(trifluoromethyl)phenyl]acetamide] |
| 3880 | O=C(CN1CCC(c2ccc(F)cc2)(c2ccc(F)cc2)C1=O)Nc1ccc(C(F)(F)F)nc1 [Example 224, 2-[3,3-bis(4-fluorophenyl)-2-oxopyrrolidin-1-yl]-N-[6-(trifluoromethyl)pyridin-3-yl]acetamide] |
| 5210 | Cc1nc(-c2cccc(C(F)(F)F)c2)sc1CN1CCC(c2ccccc2)(c2ccccc2)C1=O [Example 157, 1-({4-methyl-2-[3-(trifluoromethyl)phenyl]-1,3-thiazol-5-yl}methyl)-3,3-diphenylpyrrolidin-2-one] |
| 12000 | O=C(CN1CCCC(c2ccccc2)C1=O)Nc1ccc(Cl)cn1 (stereo not drawn) [Example 192, N-(5-chloropyridin-2-yl)-2-(2-oxo-3-phenylpiperidin-1-yl)acetamide] |
| 7220 | O=C(CN1CCCC(c2ccccc2)(c2ccccc2)C1=O)N1CCOC(c2ccccc2)C1 (stereo not drawn) [Example 70, 1-[2-oxo-2-(2-phenylmorpholin-4-yl)ethyl]-3,3-diphenylpiperidin-2-one] |
| 5740 | O=C(CN1CCC(c2ccccc2)(c2ccccc2)C1=O)NCc1ccccc1 [Example 6, N-benzyl-2-(2-oxo-3,3-diphenylpyrrolidin-1-yl)acetamide] |
| 3170 | O=C(CN1CCC(c2ccc(F)cc2)(c2ccc(F)cc2)C1=O)NC1CN(Cc2ccccc2)C1 [Example 242, N-(1-benzylazetidin-3-yl)-2-[3,3-bis(4-fluorophenyl)-2-oxopyrrolidin-1-yl]acetamide] |
| 2130 | O=C(CN1CCC(c2ccccc2)(c2ccccc2)C1=O)N1CCc2ccc(C(F)(F)F)cc2C1 [Example 55, 1-{2-oxo-2-[7-(trifluoromethyl)-3,4-dihydroisoquinolin-2(1H)-yl]ethyl}-3,3-diphenylpyrrolidin-2-one] |

| Structure (SMILES) | IC50 [nM] |
| --- | --- |
| CC(C)COc1ccc(-c2noc(CN3CCCC(c4ccccc4)(c4ccccc4)C3=O)n2)cc1 [Example 209, 1-{[3-(4-isobutoxyphenyl)-1,2,4-oxadiazol-5-yl]methyl}-3,3-diphenylpiperidin-2-one] | 10700 |
